# Measurements taken from ChEMBL document CHEMBL1201862, “PubChem BioAssay data set” (2004).
#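 Each compound was tested at five concentrations against cells in 96-well plates for 48 hours. GI50 is the concentration that inhibits growth by half.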 Active and inactive are the calls of the source. Cut-off read from the data, not from the text of the source: active = GI50 up to about 1.1 µM and inactive = higher.
# Assays:
# Assay in all cases: inhibition of tumour cell growth, NCI panel, 48 h
# [1] = system: MDA-MB-435
# [2] = system: HL-60
# [3] = system: UACC-257
# [4] = system: NCI/ADR-RES
# [5] = system: SN12C
# [6] = system: UACC-62
# [7] = system: HCC 2998
# [8] = system: OVCAR-3
# [9] = system: SK-MEL-2
# [10] = system: SK-MEL-5
# [11] = system: PC-3
# [12] = system: MCF7
# [13] = system: K562
# [14] = system: Malme-3M
# [15] = system: OVCAR-8
# [16] = system: HOP-92
# [17] = system: TK-10
# [18] = system: NCI-H23
# [19] = system: ACHN
# [20] = system: SK-OV-3
# [21] = system: IGROV-1
# [22] = system: LOX IMVI
# [23] = system: MOLT-4
# [24] = system: CCRF-CEM
# [25] = system: 786-0
# [26] = system: COLO 205
# [27] = system: MDA-MB-231
# [28] = system: OVCAR-4
# [29] = system: U-251
# [30] = system: NCI-H226
# [31] = system: SR
# [32] = system: HCT-15
# [33] = system: SW-620
# [34] = system: DU-145
# [35] = system: UO-31
# [36] = system: NCI-H460
# [37] = system: CAKI-1
# [38] = system: SF-295
# [39] = system: A498
# [40] = system: OVCAR-5
# [41] = system: NCI-H522
# [42] = system: M14
# [43] = system: MDA-N
# [44] = system: A549
# [45] = system: KM12
# [46] = system: RPMI-8226
# [47] = system: RXF 393
# [48] = system: SF-539
# [49] = system: HCT-116
# [50] = system: EKVX
# [51] = system: SNB-75
# [52] = system: SNB-19
# [53] = system: SK-MEL-28
# [54] = system: SF-268
# [55] = system: HT-29
structure (smiles),measurement,setting,value
O=CC1=C(C(=O)OC(c2ccccc2)c2ccccc2)N2C(=O)[C@@H](NC(=O)Cc3cccs3)[C@H]2SC1,GI50,[1],85.5 µM (inactive)
same,GI50,[2],23.3 µM (inactive)
same,GI50,[3],> 100 µM (inactive)
same,GI50,[4],> 100 µM (inactive)
same,GI50,[5],> 100 µM (inactive)
same,GI50,[6],> 100 µM (inactive)
same,GI50,[7],> 100 µM (inactive)
same,GI50,[8],> 100 µM (inactive)
same,GI50,[9],> 100 µM (inactive)
same,GI50,[10],> 100 µM (inactive)
same,GI50,[11],> 100 µM (inactive)
same,GI50,[12],> 100 µM (inactive)
same,GI50,[13],> 100 µM (inactive)
same,GI50,[14],> 100 µM (inactive)
same,GI50,[15],> 100 µM (inactive)
same,GI50,[16],> 100 µM (inactive)
same,GI50,[17],> 100 µM (inactive)
same,GI50,[18],73.6 µM (inactive)
same,GI50,[19],> 100 µM (inactive)
same,GI50,[20],> 100 µM (inactive)
same,GI50,[21],> 100 µM (inactive)
same,GI50,[22],> 100 µM (inactive)
same,GI50,[23],53.6 µM (inactive)
same,GI50,[24],57.3 µM (inactive)
same,GI50,[25],> 100 µM (inactive)
same,GI50,[26],> 100 µM (inactive)
same,GI50,[27],> 100 µM (inactive)
same,GI50,[28],> 100 µM (inactive)
same,GI50,[29],> 100 µM (inactive)
same,GI50,[30],> 100 µM (inactive)
same,GI50,[31],13.2 µM (inactive)
same,GI50,[32],> 100 µM
same,GI50,[33],> 100 µM (inactive)
same,GI50,[34],> 100 µM (inactive)
same,GI50,[35],40 µM (inactive)
same,GI50,[36],> 100 µM (inactive)
same,GI50,[37],> 100 µM (inactive)
same,GI50,[38],> 100 µM (inactive)
same,GI50,[39],> 100 µM (inactive)
same,GI50,[40],> 100 µM (inactive)
same,GI50,[41],64.3 µM (inactive)
same,GI50,[42],> 100 µM (inactive)
same,GI50,[43],> 100 µM (inactive)
same,GI50,[44],> 100 µM (inactive)
same,GI50,[45],91.2 µM (inactive)
same,GI50,[46],79.4 µM (inactive)
same,GI50,[47],> 100 µM (inactive)
same,GI50,[48],> 100 µM (inactive)
same,GI50,[49],83 µM (inactive)
same,GI50,[50],> 100 µM (inactive)
same,GI50,[51],> 100 µM (inactive)
COc1cc(OC)c(CSCC(NC(=O)OCC2c3ccccc3-c3ccccc32)C(=O)O)c(OC)c1 (centres undefined),GI50,[1],> 10 µM (inactive)
same,GI50,[52],> 10 µM (inactive)
same,GI50,[4],> 10 µM (inactive)
same,GI50,[5],> 10 µM (inactive)
same,GI50,[53],> 10 µM (inactive)
same,GI50,[8],> 10 µM (inactive)
same,GI50,[10],> 10 µM (inactive)
same,GI50,[11],> 10 µM (inactive)
same,GI50,[15],> 10 µM (inactive)
same,GI50,[16],> 10 µM (inactive)
same,GI50,[17],> 10 µM (inactive)
same,GI50,[18],> 10 µM (inactive)
same,GI50,[19],> 10 µM (inactive)
same,GI50,[54],> 10 µM (inactive)
same,GI50,[21],> 10 µM (inactive)
same,GI50,[26],> 10 µM (inactive)
same,GI50,[27],> 10 µM (inactive)
same,GI50,[28],> 10 µM (inactive)
same,GI50,[29],> 10 µM (inactive)
same,GI50,[30],5.22 µM (inactive)
same,GI50,[32],> 10 µM
same,GI50,[33],> 10 µM (inactive)
same,GI50,[34],> 10 µM (inactive)
same,GI50,[35],5.68 µM (inactive)
same,GI50,[37],> 10 µM (inactive)
same,GI50,[38],> 10 µM (inactive)
same,GI50,[39],> 10 µM (inactive)
same,GI50,[40],> 10 µM (inactive)
same,GI50,[42],> 10 µM (inactive)
same,GI50,[43],> 10 µM (inactive)
same,GI50,[44],> 10 µM (inactive)
same,GI50,[45],> 10 µM (inactive)
same,GI50,[47],> 10 µM (inactive)
same,GI50,[48],> 10 µM (inactive)
same,GI50,[49],> 10 µM (inactive)
same,GI50,[50],> 10 µM (inactive)
same,GI50,[51],6.95 µM (inactive)
same,GI50,[55],> 10 µM (inactive)
